# Calls of active or inactive are those of the source. The calls are words filed in the database; no cut-off is given here.
# What was measured:
# Type in all cases: functional
# [1] = tested on: MSC; experiment: Induction of adipogenesis in human bone marrow MSC assessed as adiponectin production at 30 uM after 14 days by ELISA relative to control
# [2] = Induction of adipogenesis in human bone marrow MSC assessed as formation of intracellular lipid droplets at 10 uM after 15 days by oil red O staining in IDX condition relative to control
# [3] = tested on: MSC; experiment: Induction of SSAO-mediated adipogenesis in human bone marrow MSC assessed as adiponectin level at 0.1 to 1 mM after 14 days by ELISA
# [4] = tested on: MSC; experiment: Induction of adipogenesis in human bone marrow MSC assessed as adiponectin up-regulation by RT-PCR analysis
# [5] = tested on: MSC; experiment: Induction of adipogenesis in human bone marrow MSC assessed as PPARgamma up-regulation by RT-PCR analysis
# [6] = tested on: MSC; experiment: Induction of adipogenesis in human bone marrow MSC assessed as AOC3 up-regulation by RT-PCR analysis
# [7] = tested on: MSC; experiment: Induction of adipogenesis in human bone marrow MSC assessed as MAO-B up-regulation by RT-PCR analysis
# [8] = tested on: MSC; experiment: Induction of adipogenesis in human bone marrow MSC assessed as AOC2 up-regulation by RT-PCR analysis
# [9] = tested on: MSC; experiment: Induction of adipogenesis in human bone marrow MSC assessed as MAO-A up-regulation by RT-PCR analysis
# [10] = tested on: MSC; experiment: Induction of adipogenesis in human bone marrow MSC assessed as adiponectin production after 14 days by ELISA in IDX condition
structure (smiles),measurement,setting,value
NCCNC(=O)c1ncsc1-c1cccc(F)c1,Activity,[1],Active
same,Activity,[2],49%
NNC(N)=O,Activity,[3],inactive
N[C@@H]1C[C@H]1c1ccccc1.N[C@H]1C[C@@H]1c1ccccc1 (racemic) [TRANYLCYPROMINE],Activity,[2],79%
COc1ccc(Cl)cc1C(=O)NCCc1ccc(S(=O)(=O)NC(=O)NC2CCCCC2)cc1 [GLYBURIDE],Activity,[4],Active
same,Activity,[5],Active
same,Activity,[6],Active
same,Activity,[7],Active
same,Activity,[8],Active
same,Activity,[9],Active
same,Activity,[2],134%
O=C(NCCN1CCOCC1)c1ccc(Cl)cc1 [MOCLOBEMIDE],Activity,[10],Dose-dependent effect
same,Activity,[2],146%
C#CCN(C)Cc1ccccc1 [PARGYLINE],Activity,[1],Active
same,Activity,[2],54%
NNCCc1ccccc1 [PHENELZINE],Activity,[2],85%
C#CCN(C)[C@H](C)Cc1ccccc1 [SELEGILINE],Activity,[10],Dose-dependent effect
same,Activity,[2],105%

# Source: ChEMBL document CHEMBL2384978, “The opposite effect of isotype-selective monoamine oxidase inhibitors on adipogenesis in human bone marrow mesenchymal stem cells” (2013)
